Assay results from the NIST ThermoML archive (doi:10.1016/j.fluid.2005.05.029).
± gives the expanded uncertainty stated by the source.

Experiment: excess molar enthalpy (molar enthalpy of mixing); xn = mol fraction of the nth substance listed
Conditions: Liquid, Flow calorimetry

CCOC(=O)OCC [diethyl carbonate] + O=C=O
excess molar enthalpy [kcal/mol]
Conditions	298.15 K	303.15 K	308.15 K
5000 kPa, x2 = 0.1103	–	-0.299 ± 0.00645	-0.335 ± 0.00717
5000 kPa, x2 = 0.2074	-0.57 ± 0.0122	-0.577 ± 0.0122	-0.627 ± 0.0134
5000 kPa, x2 = 0.2936	-0.816 ± 0.0174	-0.815 ± 0.0174	-0.833 ± 0.0177
5000 kPa, x2 = 0.3706	-1.03 ± 0.0217	-1.06 ± 0.0225	-1.06 ± 0.0225
5000 kPa, x2 = 0.4398	-1.22 ± 0.0263	-1.24 ± 0.0263	-1.24 ± 0.0263
5000 kPa, x2 = 0.5023	-1.4 ± 0.0287	-1.4 ± 0.0287	-1.41 ± 0.0287
5000 kPa, x2 = 0.5591	-1.53 ± 0.0335	-1.55 ± 0.0335	–
5000 kPa, x2 = 0.6109	-1.65 ± 0.0359	-1.67 ± 0.0359	-1.68 ± 0.0359
5000 kPa, x2 = 0.6583	-1.78 ± 0.0382	-1.79 ± 0.0382	-1.8 ± 0.0382
5000 kPa, x2 = 0.7019	-1.89 ± 0.0406	-1.89 ± 0.0406	-1.9 ± 0.0406
5000 kPa, x2 = 0.7184	–	–	-1.94 ± 0.0406
5000 kPa, x2 = 0.7264	–	–	-1.95 ± 0.0406
5000 kPa, x2 = 0.7343	–	–	-1.85 ± 0.0406
5000 kPa, x2 = 0.7421	-1.97 ± 0.0406	-1.98 ± 0.043	-1.81 ± 0.0382
5000 kPa, x2 = 0.7794	-2.04 ± 0.043	-2.03 ± 0.043	-1.54 ± 0.0335
5000 kPa, x2 = 0.7935	–	-2.05 ± 0.043	–
5000 kPa, x2 = 0.8004	–	-1.98 ± 0.043	–
5000 kPa, x2 = 0.8139	-2.1 ± 0.0454	-1.86 ± 0.0406	–
5000 kPa, x2 = 0.846	-2.14 ± 0.0454	-1.51 ± 0.0335	-1.07 ± 0.0227
5000 kPa, x2 = 0.8522	-2.07 ± 0.043	–	–
5000 kPa, x2 = 0.876	-1.76 ± 0.0382	-1.21 ± 0.0263	–
5000 kPa, x2 = 0.904	-1.36 ± 0.0287	-0.922 ± 0.0196	-0.65 ± 0.0139
5000 kPa, x2 = 0.9303	-0.998 ± 0.0213	-0.722 ± 0.0153	–
5000 kPa, x2 = 0.9549	-0.638 ± 0.0136	-0.439 ± 0.00932	-0.297 ± 0.00645
5000 kPa, x2 = 0.9781	-0.308 ± 0.00669	-0.208 ± 0.00454	–
5000 kPa, x2 = 0.9957	–	–	-0.00454 ± 0.00382
5500 kPa, x2 = 0.111	-0.3 ± 0.00645	-0.304 ± 0.00645	-0.305 ± 0.00645
5500 kPa, x2 = 0.2086	-0.571 ± 0.0122	-0.574 ± 0.0122	-0.579 ± 0.0124
5500 kPa, x2 = 0.2951	-0.804 ± 0.0172	-0.802 ± 0.017	–
5500 kPa, x2 = 0.3723	-0.995 ± 0.0213	-1 ± 0.0213	-1.02 ± 0.0217
5500 kPa, x2 = 0.4416	-1.16 ± 0.0239	-1.17 ± 0.0239	–
5500 kPa, x2 = 0.5041	-1.32 ± 0.0287	-1.32 ± 0.0287	-1.37 ± 0.0287
5500 kPa, x2 = 0.5609	-1.44 ± 0.0311	-1.46 ± 0.0311	–
5500 kPa, x2 = 0.6126	–	-1.6 ± 0.0335	-1.64 ± 0.0359
5500 kPa, x2 = 0.66	-1.68 ± 0.0359	-1.71 ± 0.0359	-1.75 ± 0.0359
5500 kPa, x2 = 0.7035	-1.75 ± 0.0382	-1.79 ± 0.0382	-1.84 ± 0.0382
5500 kPa, x2 = 0.7199	–	–	-1.87 ± 0.0406
5500 kPa, x2 = 0.7436	-1.84 ± 0.0382	-1.86 ± 0.0406	-1.92 ± 0.0406
5500 kPa, x2 = 0.7587	–	–	-1.95 ± 0.0406
5500 kPa, x2 = 0.7661	–	–	-1.95 ± 0.0406
5500 kPa, x2 = 0.7734	–	–	-1.97 ± 0.0406
5500 kPa, x2 = 0.7806	-1.91 ± 0.0406	-1.94 ± 0.0406	-1.95 ± 0.0406
5500 kPa, x2 = 0.7947	–	–	-1.82 ± 0.0382
5500 kPa, x2 = 0.815	-1.96 ± 0.0406	-2.01 ± 0.043	-1.64 ± 0.0359
5500 kPa, x2 = 0.8281	–	-2.03 ± 0.043	–
5500 kPa, x2 = 0.8345	–	-2.03 ± 0.043	–
5500 kPa, x2 = 0.8408	–	-2.03 ± 0.043	–
5500 kPa, x2 = 0.847	-2.01 ± 0.043	-1.93 ± 0.0406	-1.36 ± 0.0287
5500 kPa, x2 = 0.8768	-2.04 ± 0.043	-1.52 ± 0.0335	–
5500 kPa, x2 = 0.9047	-2.07 ± 0.043	-1.21 ± 0.0263	-0.841 ± 0.0179
5500 kPa, x2 = 0.91	-2.07 ± 0.043	–	–
5500 kPa, x2 = 0.9153	-2.04 ± 0.043	–	–
5500 kPa, x2 = 0.9205	-1.95 ± 0.0406	–	–
5500 kPa, x2 = 0.9308	-1.69 ± 0.0359	-0.875 ± 0.0186	–
5500 kPa, x2 = 0.9553	-1.08 ± 0.0229	-0.564 ± 0.012	-0.396 ± 0.00837
5500 kPa, x2 = 0.9783	-0.498 ± 0.0105	-0.265 ± 0.00574	–
6000 kPa, x2 = 0.2097	–	–	-0.562 ± 0.012
6000 kPa, x2 = 0.2965	–	–	-0.778 ± 0.0165
6000 kPa, x2 = 0.3739	–	–	-0.994 ± 0.021
6000 kPa, x2 = 0.4433	–	–	-1.17 ± 0.0239
6000 kPa, x2 = 0.5058	–	–	-1.32 ± 0.0287
6000 kPa, x2 = 0.5626	–	–	-1.45 ± 0.0311
6000 kPa, x2 = 0.6142	–	–	-1.57 ± 0.0335
6000 kPa, x2 = 0.6615	–	–	-1.66 ± 0.0359
6000 kPa, x2 = 0.7049	–	–	-1.76 ± 0.0382
6000 kPa, x2 = 0.7448	–	–	-1.83 ± 0.0382
6000 kPa, x2 = 0.7818	–	–	-1.9 ± 0.0406
6000 kPa, x2 = 0.7958	–	–	-1.92 ± 0.0406
6000 kPa, x2 = 0.816	–	–	-1.94 ± 0.0406
6000 kPa, x2 = 0.829	–	–	-1.95 ± 0.0406
6000 kPa, x2 = 0.8354	–	–	-1.91 ± 0.0406
6000 kPa, x2 = 0.8479	–	–	-1.76 ± 0.0382
6000 kPa, x2 = 0.9052	–	–	-1.09 ± 0.0232
6000 kPa, x2 = 0.9555	–	–	-0.501 ± 0.0108
6500 kPa, x2 = 0.1123	–	–	-0.281 ± 0.00598
6500 kPa, x2 = 0.2108	–	–	-0.536 ± 0.0115
6500 kPa, x2 = 0.2978	–	–	-0.751 ± 0.016
6500 kPa, x2 = 0.3753	–	–	-0.972 ± 0.0208
6500 kPa, x2 = 0.4448	–	–	-1.1 ± 0.0234
6500 kPa, x2 = 0.5074	–	–	-1.25 ± 0.0263
6500 kPa, x2 = 0.5641	–	–	-1.37 ± 0.0287
6500 kPa, x2 = 0.6157	–	–	-1.47 ± 0.0311
6500 kPa, x2 = 0.6629	–	–	-1.58 ± 0.0335
6500 kPa, x2 = 0.7062	–	–	-1.67 ± 0.0359
6500 kPa, x2 = 0.746	–	–	-1.73 ± 0.0359
6500 kPa, x2 = 0.7828	–	–	-1.76 ± 0.0382
6500 kPa, x2 = 0.817	–	–	-1.8 ± 0.0382
6500 kPa, x2 = 0.8487	–	–	-1.83 ± 0.0382
6500 kPa, x2 = 0.8782	–	–	-1.82 ± 0.0382
6500 kPa, x2 = 0.895	–	–	-1.7 ± 0.0359
6500 kPa, x2 = 0.9058	–	–	-1.56 ± 0.0335
6500 kPa, x2 = 0.9215	–	–	-1.27 ± 0.0263
6500 kPa, x2 = 0.9316	–	–	-1.13 ± 0.0239
6500 kPa, x2 = 0.9415	–	–	-0.986 ± 0.021
6500 kPa, x2 = 0.9558	–	–	-0.69 ± 0.0148
6500 kPa, x2 = 0.9786	–	–	-0.329 ± 0.00717
6500 kPa, x2 = 0.9916	–	–	-0.111 ± 0.00406
